In ChEMBL document CHEMBL1687756 (Antimicrob Agents Chemother, 2010):

Key:
[1] = Cmax in female dog at 400 mg administered intramuscularly after 29 days; conditions: in vivo, im
[2] = Drug level in Beagle dog lymph node popliteal at 5 mg/kg administered intramuscularly after 6 months; assay type: ADME, organism-based, Canis lupus familiaris; design: dose 5 mg/kg, route intramuscular; conditions: im, read-out: Drug uptake
[3] = Ratio of drug level in thymus to plasma in female Beagle dog at 400 mg/kg, sc after 3 months; assay type: ADME, organism-based, Canis lupus familiaris; design: dose 400 mg/kg, route subcutaneous
[4] = Plasma concentration in male Beagle dog at 400 mg/kg administered intramuscularly after 1 month; assay type: ADME, organism-based, Canis lupus familiaris; design: dose 400 mg/kg, route intramuscular; conditions: im
[5] = AUC (0 to last) in male dog at 400 mg administered intramuscularly after 29 days; conditions: plasma, im
[6] = Ratio of drug level in liver to plasma in Beagle dog at 5 mg/kg, sc after 3 months; assay type: ADME, organism-based, Canis lupus familiaris; design: dose 5 mg/kg, route subcutaneous
[7] = Drug level in Beagle dog muscle at non-injected site at 5 mg/kg, sc after 3 months; assay type: ADME, organism-based, Canis lupus familiaris, Muscle tissue; design: dose 5 mg/kg, route subcutaneous; conditions: read-out: Drug uptake
[8] = Plasma concentration in Beagle dog at 5 mg/kg, sc after 1 month; assay type: ADME, organism-based, Canis lupus familiaris; design: dose 5 mg/kg, route subcutaneous
[9] = Drug level in female Beagle dog spleen at 200 mg/kg administered intramuscularly after 1 month; assay type: ADME, organism-based, Canis lupus familiaris; design: dose 200 mg/kg, route intramuscular; conditions: im, read-out: Drug uptake
[10] = Ratio of drug level in thymus to plasma in male Beagle dog at 200 mg/kg administered intramuscularly after 1 month; assay type: ADME, organism-based, Canis lupus familiaris; design: dose 200 mg/kg, route intramuscular; conditions: im
[11] = Drug level in Beagle dog lymph node mandibular at 5 mg/kg, sc after 6 months; assay type: ADME, organism-based, Canis lupus familiaris; design: dose 5 mg/kg, route subcutaneous; conditions: read-out: Drug uptake
[12] = Ratio of drug level in spleen to plasma in male Beagle dog at 400 mg/kg, sc after 1 month; assay type: ADME, organism-based, Canis lupus familiaris; design: dose 400 mg/kg, route subcutaneous
[13] = Plasma concentration in male Beagle dog at 400 mg/kg, sc after 1 month; assay type: ADME, organism-based, Canis lupus familiaris; design: dose 400 mg/kg, route subcutaneous
[14] = Ratio of drug level in thymus to plasma in male Beagle dog at 400 mg/kg, sc after 1 month; assay type: ADME, organism-based, Canis lupus familiaris; design: dose 400 mg/kg, route subcutaneous
[15] = AUC (0 to last) in Beagle dog at 5 mg/kg administered intramuscularly after 184 days; assay type: ADME, organism-based, Canis lupus familiaris; design: dose 5 mg/kg, route intramuscular, time 0 - last; conditions: plasma, im
[16] = Drug level in female Beagle dog thymus at 400 mg/kg, sc after 3 months; assay type: ADME, organism-based, Canis lupus familiaris; design: dose 400 mg/kg, route subcutaneous; conditions: read-out: Drug uptake
[17] = system: Canis familiaris; assay: Toxicity in Beagle dog assessed as irritation at 20 mg/kg, sc after 3 months; assay type: organism-based, Canis lupus familiaris; design: dose 20 mg/kg, route subcutaneous; conditions: in vivo, 2191.5 h
[18] = Ratio of drug level in spleen to plasma in female Beagle dog at 200 mg/kg, sc after 1 month; assay type: ADME, organism-based, Canis lupus familiaris; design: dose 200 mg/kg, route subcutaneous
[19] = Ratio of drug level in lymph node iliac to plasma in Beagle dog at 5 mg/kg, sc after 3 months; assay type: ADME, organism-based, Canis lupus familiaris; design: dose 5 mg/kg, route subcutaneous
[20] = Plasma concentration in Beagle dog at 5 mg/kg administered intramuscularly after 1 month; assay type: ADME, organism-based, Canis lupus familiaris; design: dose 5 mg/kg, route intramuscular; conditions: im
[21] = Drug level in male Beagle dog spleen at 400 mg/kg, sc after 1 month; assay type: ADME, organism-based, Canis lupus familiaris; design: dose 400 mg/kg, route subcutaneous; conditions: read-out: Drug uptake
[22] = Ratio of drug level in liver to plasma in Beagle dog at 5 mg/kg, sc after 6 months; assay type: ADME, organism-based, Canis lupus familiaris; design: dose 5 mg/kg, route subcutaneous
[23] = Drug level in male Beagle dog spleen at 400 mg/kg, sc after 3 months; assay type: ADME, organism-based, Canis lupus familiaris; design: dose 400 mg/kg, route subcutaneous; conditions: read-out: Drug uptake
[24] = system: Canis familiaris; assay: Toxicity in Beagle dog assessed as white deposits at 20 mg/kg administered intramuscularly after 3 months; assay type: organism-based, Canis lupus familiaris; design: dose 20 mg/kg, route intramuscular; conditions: in vivo, im, 2191.5 h
[25] = Drug level in female Beagle dog thymus at 400 mg/kg administered intramuscularly after 3 months; assay type: ADME, organism-based, Canis lupus familiaris; design: dose 400 mg/kg, route intramuscular; conditions: im, read-out: Drug uptake
[26] = Drug level in Beagle dog lymph node axillar at 5 mg/kg, sc after 6 months; assay type: ADME, organism-based, Canis lupus familiaris; design: dose 5 mg/kg, route subcutaneous; conditions: axillary lymph node, read-out: Drug uptake
[27] = Drug level in male Beagle dog spleen at 200 mg/kg administered intramuscularly after 3 months; assay type: ADME, organism-based, Canis lupus familiaris; design: dose 200 mg/kg, route intramuscular; conditions: im, read-out: Drug uptake
[28] = Plasma concentration in male Beagle dog at 400 mg/kg, sc after 3 months; assay type: ADME, organism-based, Canis lupus familiaris; design: dose 400 mg/kg, route subcutaneous

Cc1cc(/C=C/C#N)cc(C)c1Nc1ccnc(Nc2ccc(C#N)cc2)n1 [RILPIVIRINE]
Cmax [1]: 6190 ng/mL
concentration at 4383 h [2]: 30.7 ng/g
Kp at 2191.5 h [3]: 2.9
concentration at 730.5 h [4]: 158 ng/mL
AUC(0-t) at 696 h [5]: 188 µg·h/mL
Kp at 2191.5 h [6]: 14
concentration at 2191.5 h [7]: 18.5 ng/g
concentration at 730.5 h [8]: 16.8 ng/mL
concentration at 730.5 h [9]: 142 ng/g
Kp at 730.5 h [10]: 3.2
concentration at 4383 h [11]: 7.8 ng/g
Kp at 730.5 h [12]: 2.9
concentration at 730.5 h [13]: 209 ng/mL
Kp at 730.5 h [14]: 2.9
AUC(0-t) at 4416 h [15]: 39.4 µg·h/mL
concentration at 2191.5 h [16]: 101 ng/g
Activity [17]: Non-toxic
Kp at 730.5 h [18]: 2
Kp at 2191.5 h [19]: 5.2
concentration at 730.5 h [20]: 11.3 ng/mL
concentration at 730.5 h [21]: 569 ng/g
Kp at 4383 h [22]: 24
concentration at 2191.5 h [23]: 11.3 ng/g
Activity [24]: Non-toxic
concentration at 2191.5 h [25]: 109 ng/g
concentration at 4383 h [26]: 8.6 ng/g
concentration at 2191.5 h [27]: 23.8 ng/g
concentration at 2191.5 h [28]: 48.4 ng/mL
